Assay in all cases: relative viability (nuclei count vs DMSO), 5 days (fraction); higher = more cells survive
Compound in assay [1]: CC(C)CCN1c2nc(Nc3cc(F)c(O)c(F)c3)ncc2N(C)C(=O)C1C [BI-D1870] + CC(=O)c1c(C)c2cnc(Nc3ccc(N4CCNCC4)cn3)nc2n(C2CCCC2)c1=O [Palbociclib] (partner 0.5 µM)
The procedure, abridged: (§1)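 Relative viability equals treated-well nuclei counts divided by vehicle-well nuclei counts. Counts came from 4× images of lung cancer cell lines grown in 1536-well plates for 5 days after pin-tool dosing on the day after seeding. Dosing used one drug alone or a fixed anchor-drug dose plus five library-drug doses (not always all listed) in √10 steps, and values are medians of duplicate plates.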

Compound in assay [2]: CC(C)CCN1c2nc(Nc3cc(F)c(O)c(F)c3)ncc2N(C)C(=O)C1C [BI-D1870] + Cc1nc(NC(=O)N2CCC[C@H]2C(N)=O)sc1-c1ccnc(C(C)(C)C(F)(F)F)c1 [Alpelisib] (partner 2 µM)
The gist of the method: as §1

Compound in assay [3]: O=c1ncccn1[C@@H]1O[C@H](CO)[C@@H](O)[C@H]1O [Zebularine] + CS(=O)(=O)N1CCN(Cc2cc3nc(-c4cccc5[nH]ncc45)nc(N4CCOCC4)c3s2)CC1 [Pictilisib] (partner 1 µM)
The gist of the method: as §1

Compound in assay [4]: O=c1ncccn1[C@@H]1O[C@H](CO)[C@@H](O)[C@H]1O [Zebularine] + Nc1nc2[nH]cc(CCc3ccc(C(=O)N[C@@H](CCC(=O)O)C(=O)O)cc3)c2c(=O)[nH]1 [Pemetrexed] (partner 0.2 µM)
The gist of the method:
as §1

In the case of EPLC-272H, the relative viability was 0.323 in assay [1] (first compound 0.04 µM); 0.358 in assay [1] (first compound 0.1265 µM); 0.306 in assay [1] (first compound 0.4 µM); 0.288 in assay [1] (first compound 1.265 µM); 0.23 in assay [1] (first compound 4 µM); 0.967 in assay [2] (first compound 0.04 µM). Moreover, the relative viability amounted to 0.878 in assay [2] (first compound 0.1265 µM); 0.836 in assay [2] (first compound 0.4 µM); 1.01 in assay [2] (first compound 1.265 µM); 0.953 in assay [2] (first compound 4 µM); 0.342 in assay [3] (first compound 1 µM); 0.297 in assay [3] (first compound 31.62 µM). Moreover, the relative viability in assay [3] (first compound 100 µM) was 0.273; in assay [4] (first compound 1 µM) it was 0.36; in assay [4] (first compound 3.162 µM) it was 0.331; in assay [4] (first compound 31.62 µM), 0.342; in assay [4] (first compound 100 µM), 0.264.

Regarding NCI-H1915, the relative viability in assay [1] (first compound 0.04 µM) was 0.577; in assay [1] (first compound 0.1265 µM) it was 0.504; in assay [1] (first compound 0.4 µM) it was 0.469; in assay [1] (first compound 1.265 µM), 0.451; in assay [1] (first compound 4 µM), 0.376; in assay [2] (first compound 0.04 µM) it was 1.03. For the same cell line, the relative viability in assay [2] (first compound 0.1265 µM) amounted to 1.07; in assay [2] (first compound 0.4 µM), 1.03; in assay [2] (first compound 1.265 µM), 1.06; in assay [2] (first compound 4 µM) it was 1; in assay [3] (first compound 1 µM) it was 1.07; in assay [3] (first compound 3.162 µM), 0.887. For the same cell line, the relative viability turned out to be 0.774 in assay [3] (first compound 10 µM); 1.02 in assay [3] (first compound 31.62 µM); 0.907 in assay [3] (first compound 100 µM); 0.54 in assay [4] (first compound 1 µM); 0.46 in assay [4] (first compound 3.162 µM); 0.449 in assay [4] (first compound 10 µM). Moreover, the relative viability turned out to be 0.553 in assay [4] (first compound 31.62 µM) and 0.513 in assay [4] (first compound 100 µM).

In the case of NCI-H2405, the relative viability in assay [1] (first compound 0.04 µM) was determined as 0.58; in assay [1] (first compound 0.1265 µM), 0.525; in assay [1] (first compound 0.4 µM) it was 0.523; in assay [1] (first compound 1.265 µM), 0.565; in assay [1] (first compound 4 µM), 0.49; in assay [2] (first compound 0.04 µM) it was 0.976. For the same cell line, the relative viability came out at 0.766 in assay [2] (first compound 0.1265 µM); 0.769 in assay [2] (first compound 0.4 µM); 0.789 in assay [2] (first compound 1.265 µM); 0.705 in assay [2] (first compound 4 µM); 0.476 in assay [3] (first compound 1 µM); 0.474 in assay [3] (first compound 3.162 µM). For the same cell line, the relative viability worked out at 0.399 in assay [3] (first compound 10 µM); 0.387 in assay [3] (first compound 31.62 µM); 0.409 in assay [3] (first compound 100 µM); 1.14 in assay [4] (first compound 1 µM); 0.913 in assay [4] (first compound 3.162 µM); 0.795 in assay [4] (first compound 10 µM). Further, the results for the relative viability in assay [4] (first compound 31.62 µM) and in assay [4] (first compound 100 µM) were 1.09 and 0.681, respectively.

On to NCI-H322M, for which the relative viability in assay [1] (first compound 0.04 µM) turned out to be 0.492; in assay [1] (first compound 0.1265 µM) it was 0.475; in assay [1] (first compound 0.4 µM), 0.461; in assay [1] (first compound 1.265 µM), 0.483; in assay [1] (first compound 4 µM), 0.501; in assay [2] (first compound 0.04 µM) it was 0.887. The relative viability in assay [2] (first compound 0.1265 µM) stood at 0.79; in assay [2] (first compound 0.4 µM), 0.741; in assay [2] (first compound 1.265 µM), 0.891; in assay [2] (first compound 4 µM), 0.765; in assay [3] (first compound 1 µM) it was 0.496; in assay [3] (first compound 3.162 µM) it was 0.504. The relative viability in assay [3] (first compound 10 µM) stood at 0.439; in assay [3] (first compound 31.62 µM), 0.538; in assay [3] (first compound 100 µM), 0.465; in assay [4] (first compound 1 µM), 0.595; in assay [4] (first compound 3.162 µM) it was 0.565; in assay [4] (first compound 10 µM), 0.501. Further, the relative viability in assay [4] (first compound 31.62 µM) was determined as 0.635; in assay [4] (first compound 100 µM) it was 0.59.

Turning to NCI-H2170, the relative viability in assay [1] (first compound 0.04 µM) came out at 0.455; in assay [1] (first compound 0.1265 µM), 0.38; in assay [1] (first compound 0.4 µM), 0.423; in assay [1] (first compound 1.265 µM), 0.447; in assay [1] (first compound 4 µM), 0.398; in assay [2] (first compound 0.04 µM), 0.867. Besides, the relative viability in assay [2] (first compound 0.1265 µM) came to 0.705; in assay [2] (first compound 0.4 µM), 0.818; in assay [2] (first compound 1.265 µM), 0.751; in assay [2] (first compound 4 µM), 0.772; in assay [3] (first compound 1 µM) it was 0.385; in assay [3] (first compound 3.162 µM), 0.31. Further, the relative viability was 0.348 in assay [3] (first compound 10 µM); 0.322 in assay [3] (first compound 31.62 µM); 0.243 in assay [3] (first compound 100 µM); 0.273 in assay [4] (first compound 1 µM); 0.289 in assay [4] (first compound 3.162 µM); 0.273 in assay [4] (first compound 10 µM). The relative viability in assay [4] (first compound 31.62 µM) is 0.27; in assay [4] (first compound 100 µM) it was 0.221.

The values above are taken from the supplement of paper PMC10307832.
